In US10512700B2, “Radiohalide-labeled targeted diagnostics and therapeutics” (Memorial Sloan Kettering Cancer Center, priority 2014, dated 2019):
Values joined by “and” are separate entries in the source; they are usually repeats but may differ in a detail not shown here. Equal entries are not always repeated.

Assays:
Blood half-life = type: in vivo, mouse; settings: healthy athymic nude mice, tail vein
Description: The blood half-life was determined by measuring the activity in serial blood samplings. […] Measurements in counts per minute were calculated as the mean % ID/g. The blood half-life was calculated using Prism 6.0c (GraphPad Software, La Jolla, Calif.).
The blood half-life was calculated by measuring the activity of blood samples collected at different time points p.i. […] The collected blood was weighed and counted in a WIZARD^2 automatic γ-counter (PerkinElmer, Boston, Mass.). The blood half-life was calculated using Prism 6.0c (GraphPad Software, La Jolla, Calif.) using a two-phase decay least squares fitting method and expressed as % ID/g.

[1] = test system: U87 MG tumor bearing mice; assay: Biodistribution; type: in vivo, mouse; settings: i.v.
Description: Biodistribution experiments were conducted on female nude mice (8-10 weeks old and 20-25 g in weight, n=21) bearing U87 MG subcutaneous xenografts. The radiolabeled preparation (20-30 μCi of compound C-2d (^131I) in 200 μL of a solution 90% PBS 10% PEG300) was administrated via the lateral tail vein. To determine a suitable specific activity (to achieve a sufficiently high tumor to organ ratio), several specific activities were tested (5 mCi/μmol, 50 mCi/μmol, 250 mCi/μmol) in mice bearing U87 MG tumors. The compound was allowed to circulate for 2 h post injection at which time mice were sacrificed and organs were harvested (n=3). The radioactive content in tissue of interest (blood, tumor, muscle, bone, liver, spleen, kidney, heart, lung, pancreas, brain, skin, small intestine, large intestine, stomach, tail, thyroid and feces) was measured on a Wizard 2470 Automatic Gamma Counter, and the tissue-associated activity was calculated as the mean % ID/g using the following formula: [(activity in the target organ/grams of tissue)/injected dose]×100%.
After determining the optimal specific activity (of the three tested), a suitable time window for imaging was determined by testing the compound distribution in nude mice bearing U87 MG tumors at different time points. The compound was allowed to circulate for various times (1, 2, and 6 h), after which the mice were sacrificed (n=3).

[2] = Stability in whole blood (in vitro); type: in vitro ADME, mouse
Description: […] […] The sample was centrifuged at 3000 RCF for 3 min at 4° C., and the supernatant collected. This procedure was repeated three times, and the combined supernatants analyzed by HPLC equipped with radioactive detector (Shimadzu, Kyoto, Japan), collecting samples every 30 sec. Radioactivity of each fraction was measured on a Wizard 2470 Automatic Gamma Counter (Perkin Elmer, Waltham, Mass.) and the blood stability was analyzed using Prism 6.0c (GraphPad Software, La Jolla, Calif.).

[3] = 50 mCi/μmol, 2 h post injection
[4] = 250 mCi/μmol, 2 h post injection

alpha blood half-life (Blood half-life): 14.3 min | alpha blood half-life, share of phase (Blood half-life): 96.25% | beta blood half-life (Blood half-life): 94.6 min | beta blood half-life, share of phase (Blood half-life): 3.75% | weighted blood half-life (Blood half-life; 50 μCi): 17.1 min | % ID/g, Blood ([1]; 5 mCi/μmol, 2 h post injection): 5.88 % ID/g | % ID/g, Bone ([1]; 5 mCi/μmol, 2 h post injection): 0.14 % ID/g | % ID/g, Brain ([1]; 5 mCi/μmol, 2 h post injection): 0.02 % ID/g | % ID/g, Feces ([1]; 5 mCi/μmol, 2 h post injection): 6.23 % ID/g | % ID/g, Heart ([1]; 5 mCi/μmol, 2 h post injection): 0.26 % ID/g | % ID/g, Kidneys ([1]; 5 mCi/μmol, 2 h post injection): 1.08 % ID/g | % ID/g, Large intestine ([1]; 5 mCi/μmol, 2 h post injection): 5.43 % ID/g | % ID/g, Liver ([1]; 5 mCi/μmol, 2 h post injection): 3.14 % ID/g | % ID/g, Lung ([1]; 5 mCi/μmol, 2 h post injection): 0.55 % ID/g | % ID/g, Muscle ([1]; 5 mCi/μmol, 2 h post injection): 0.27 % ID/g | % ID/g, Pancreas ([1]; 5 mCi/μmol, 2 h post injection): 0.67 % ID/g | % ID/g, Skin ([1]; 5 mCi/μmol, 2 h post injection): 0.26 % ID/g | % ID/g, Small intestine ([1]; 5 mCi/μmol, 2 h post injection): 14.16 % ID/g | % ID/g, Spleen ([1]; 5 mCi/μmol, 2 h post injection): 0.60 % ID/g | % ID/g, Stomach ([1]; 5 mCi/μmol, 2 h post injection): 5.86 % ID/g | % ID/g, Tail ([1]; 5 mCi/μmol, 2 h post injection): 2.31 % ID/g | % ID/g, Thyroid ([1]; 5 mCi/μmol, 2 h post injection): 0.37 % ID/g | % ID/g, Tumor ([1]; 5 mCi/μmol, 2 h post injection): 0.32 % ID/g | % ID/g, Blood [1, 3]: 0.90 % ID/g | % ID/g, Bone [1, 3]: 0.04 % ID/g | % ID/g, Brain [1, 3]: 0.007 % ID/g | % ID/g, Feces [1, 3]: 3.75 % ID/g | % ID/g, Heart [1, 3]: 0.10 % ID/g | % ID/g, Kidneys [1, 3]: 0.35 % ID/g | % ID/g, Large intestine [1, 3]: 0.94 % ID/g | % ID/g, Liver [1, 3]: 1.02 % ID/g | % ID/g, Lung [1, 3]: 0.28 % ID/g | % ID/g, Muscle [1, 3]: 0.04 % ID/g | % ID/g, Pancreas [1, 3]: 0.42 % ID/g | % ID/g, Skin [1, 3]: 0.092 % ID/g | % ID/g, Small intestine [1, 3]: 7.17 % ID/g | % ID/g, Spleen [1, 3]: 0.15 % ID/g | % ID/g, Stomach [1, 3]: 1.90 % ID/g | % ID/g, Tail [1, 3]: 0.45 % ID/g | % ID/g, Thyroid [1, 3]: 0.14 % ID/g | % ID/g, Tumor [1, 3]: 0.17 % ID/g | % ID/g, Blood [1, 4]: 4.78 % ID/g | % ID/g, Bone [1, 4]: 0.09 % ID/g | % ID/g, Brain [1, 4]: 0.06 % ID/g | % ID/g, Feces [1, 4]: 67.25 % ID/g | % ID/g, Heart [1, 4]: 0.16 % ID/g | % ID/g, Kidneys [1, 4]: 0.58 % ID/g | % ID/g, Large intestine [1, 4]: 17.29 % ID/g | % ID/g, Liver [1, 4]: 2.17 % ID/g | % ID/g, Lung [1, 4]: 0.43 % ID/g | % ID/g, Muscle [1, 4]: 0.074 % ID/g | % ID/g, Pancreas [1, 4]: 0.27 % ID/g | % ID/g, Skin [1, 4]: 0.14 % ID/g | % ID/g, Small intestine [1, 4]: 7.55 % ID/g | % ID/g, Spleen [1, 4]: 0.43 % ID/g | % ID/g, Stomach [1, 4]: 1.25 % ID/g | % ID/g, Tail [1, 4]: 0.58 % ID/g | % ID/g, Thyroid [1, 4]: 0.20 % ID/g | % ID/g, Tumor [1, 4]: 0.18 % ID/g | % ID/g, Blood ([1]; 1 h post injection): 2.76 % ID/g | % ID/g, Bone ([1]; 1 h post injection): 0.19 % ID/g | % ID/g, Brain ([1]; 1 h post injection): 0.034 % ID/g | % ID/g, Feces ([1]; 1 h post injection): 7.31 % ID/g | % ID/g, Heart ([1]; 1 h post injection): 0.39 % ID/g | % ID/g, Kidneys ([1]; 1 h post injection): 1.60 % ID/g | % ID/g, Large intestine ([1]; 1 h post injection): 1.49 % ID/g | % ID/g, Liver ([1]; 1 h post injection): 4.61 % ID/g | % ID/g, Lung ([1]; 1 h post injection): 0.71 % ID/g | % ID/g, Muscle ([1]; 1 h post injection): 0.27 % ID/g | % ID/g, Pancreas ([1]; 1 h post injection): 0.74 % ID/g | % ID/g, Skin ([1]; 1 h post injection): 0.46 % ID/g | % ID/g, Small intestine ([1]; 1 h post injection): 13.70 % ID/g | % ID/g, Spleen ([1]; 1 h post injection): 0.64 % ID/g | % ID/g, Stomach ([1]; 1 h post injection): 1.88 % ID/g | % ID/g, Tail ([1]; 1 h post injection): 1.00 % ID/g | % ID/g, Thyroid ([1]; 1 h post injection): 0.56 % ID/g | % ID/g, Tumor ([1]; 1 h post injection): 0.50 % ID/g | % ID/g, Blood ([1]; 2 h post injection): 0.90 % ID/g | % ID/g, Bone ([1]; 2 h post injection): 0.044 % ID/g | % ID/g, Brain ([1]; 2 h post injection): 0.007±0.002 % ID/g and 0.007 % ID/g | % ID/g, Feces ([1]; 2 h post injection): 3.75 % ID/g | % ID/g, Heart ([1]; 2 h post injection): 0.10 % ID/g | % ID/g, Kidneys ([1]; 2 h post injection): 0.35 % ID/g | % ID/g, Large intestine ([1]; 2 h post injection): 0.94 % ID/g | % ID/g, Liver ([1]; 2 h post injection): 1.02 % ID/g | % ID/g, Lung ([1]; 2 h post injection): 0.28 % ID/g | % ID/g, Muscle ([1]; 2 h post injection): 0.04±0.02 % ID/g and 0.039 % ID/g | % ID/g, Pancreas ([1]; 2 h post injection): 0.42 % ID/g | % ID/g, Skin ([1]; 2 h post injection): 0.091 % ID/g | % ID/g, Small intestine ([1]; 2 h post injection): 7.16 % ID/g | % ID/g, Spleen ([1]; 2 h post injection): 0.15 % ID/g | % ID/g, Stomach ([1]; 2 h post injection): 1.90 % ID/g | % ID/g, Tail ([1]; 2 h post injection): 0.45 % ID/g | % ID/g, Thyroid ([1]; 2 h post injection): 0.14 % ID/g | % ID/g, Tumor ([1]; 2 h post injection): 0.17±0.06 % ID/g and 0.17 % ID/g | % ID/g, Blood ([1]; 6 h post injection): 0.34 % ID/g | % ID/g, Bone ([1]; 6 h post injection): 0.035 % ID/g | % ID/g, Brain ([1]; 6 h post injection): 0.008 % ID/g | % ID/g, Feces ([1]; 6 h post injection): 70.67 % ID/g | % ID/g, Heart ([1]; 6 h post injection): 0.075 % ID/g | % ID/g, Kidneys ([1]; 6 h post injection): 0.24 % ID/g | % ID/g, Large intestine ([1]; 6 h post injection): 1.33 % ID/g | % ID/g, Liver ([1]; 6 h post injection): 0.65 % ID/g | % ID/g, Lung ([1]; 6 h post injection): 0.12 % ID/g | % ID/g, Muscle ([1]; 6 h post injection): 0.023 % ID/g | % ID/g, Pancreas ([1]; 6 h post injection): 0.084 % ID/g | % ID/g, Skin ([1]; 6 h post injection): 0.072 % ID/g | % ID/g, Small intestine ([1]; 6 h post injection): 1.13 % ID/g | % ID/g, Spleen ([1]; 6 h post injection): 0.060 % ID/g | % ID/g, Stomach ([1]; 6 h post injection): 0.81 % ID/g | % ID/g, Tail ([1]; 6 h post injection): 0.31 % ID/g | % ID/g, Thyroid ([1]; 6 h post injection): 0.098 % ID/g | % ID/g, Tumor ([1]; 6 h post injection): 0.13 % ID/g | in vitro blood stability ([2]; mouse blood, 37° C., over 60 min): confirmed the stability of the compound | in vitro blood stability ([2]; over the course of 120 minutes): confirmed the stability of the compound
Structure (SMILES): O=C(c1ccc([131I])cc1)N1CCN(C(=O)c2cc(Cc3n[nH]c(=O)c4ccccc34)ccc2F)CC1 [C-2d (^131I)]
